Patent publication US12516293B2, “Reagents and methods with Wnt agonists and bioactive lipids for generating and expanding cardiomyocytes” (The Board of Trustees of the Leland Stanford Junior …, priority 2018, dated 2026)

How the values were obtained:
Assay type in all cases: cell-based, human
TCF/LEF [1] = assay: TOPFlash TCF/LEF luciferase reporter in day 12 hiPSC-CMs; conditions: P0 hiPSC-CMs, 24 hours
Procedure: Day 12 hiPSC-CMs were transfected for 48h with a TCF reporter plasmid (TOPflash M50, Addgene) or the mutant reporter plasmid (TOPflash M51, Addgene) and the use of Lipofectamine 3000 (Invitrogen). 72h after transfection cells were treated with various small molecules for 24h. Cells were lysed and mixed with luciferase substrate (Promega) and the firefly luciferase expression was measured with a 96-well micro plate reader (Fisher).

hiPSC-CMs [2] = assay: Single cell RNA sequencing of day 12 hiPSC-CMs
Procedure: For the single cell gene expression replated hiPSC-CMs were treated at day 12 with DMSO, CHIR99021 or C59 for 24 hours. At day 13 cells were digested with TrypLE Select Enzyme for about 5 minutes and dissociated with gentle pipetting. […] Single cell analysis was performed with the Loupe Cell Browser software. To investigate the global transcriptional changes of hiPSC-CMs in response to gain and loss of Wnt signaling, single cell RNA sequencing was performed in day 12 hiPSC-CMs treated for 24 hours with either DMSO (CTR), CHIR or C59.

hiPSC-CMs [3] = assay: hiPSC-CM expansion upon serial passaging
TCF/LEF [4] = assay: TOPFlash TCF/LEF luciferase reporter in hiPSCs; conditions: treatment alone, 2 hours
Procedure: and day 30 hiPSC-CMs were replated in 96-well plates and cultured for 2-3 days before transfection with Lipofectamine (Invitrogen) and TOPFlash (TCF/LEF) luciferase Wnt signaling reporter plasmid (M50, Addgene) at 100 ng/well. After 48 hours, media was changed, and cells were subjected to different treatments for 2 hours before lysis and luciferase (Promega) luminescence was measured with a standard luminescence plate reader. […] It was studied whether S1P/LPA treatment of undifferentiated hiPS cells, either alone or in combination with CHIR, could increase the level of nuclear β-catenin. […] To examine whether the increase in nuclear β-catenin level results in an activation of Wnt signaling at the transcriptional level, hiPSCs were transfected with the previously described TOPFlash luciferase reporter plasmid^23 ([…] et al. 2003). This system provides a proportionate visualization of Wnt transcriptional activity using bioluminescence. Subsequently, the cells were treated with dimethyl sulfoxide (DMSO), CHIR, S1P/LPA, or a combination of S1P/LPA and CHIR. […] When S1P/LPA was combined with CHIR, the TCF/LEF-luciferase activity was further increased to more than 60-fold compared with DMSO control (FIG. 16C).

hiPSC-CMs [5] = assay: Sarcomere alignment and contractility on micropatterns
Procedure: Cells were plated on soft substrates with micropatterned proteins on top. After 3-6 days of culture high resolution movies (Sony Microscopy) were recorded for at least 10 individual cells per group and motion velocity analysis was processed digitally. After recordings, cells were fixed and used for immunohistochemistry and confocal imaging. Sarcomere alignment was quantified with Image J software. CM maturation is accompanied by the formation of highly structured sarcomere, bi- or multinucleation, and cell cycle exit (Bassat et al., 2017; Bersell et al., 2009; Senyo et al., 2014; Uygur and Lee, 2016). […] To address this, age-matched hiPSC-CMs exposed to media containing DMSO (CTR) were compared to ones that have undergone 3 passages in media containing 2.0 μM CHIR using various phenotypic assays of CM function. To assess sarcomere alignment, CHIR and CTR hiPSC-CMs on 7:1 aspect ratio micropatterns (Ribeiro et al., 2015) were cultured and immunostained with TnT and sarcomeric actinin antibodies.

hiPSC-CMs [6] = assay: Real-time PCR / immunostaining of cardiac gene expression in hiPSC-CMs; conditions: CHIR treatment, qPCR
Procedure: For quantitative analysis of gene expression, RNA was extracted with a lysis buffer (Qiagen) from hiPSC-CMs and stored at −80° C. Total RNA from each sample was purified from cell lysate using a RNA purification kit (Qiagen). cDNA was made using iScript cDNA synthesis kit (BioRad). Quantitative PCR was performed using a 96-well thermocycler system (Biorad) with SYBR Green substrate (Affymetrix) for 40 cycles. All primers sequences were obtained from the PrimerBank (Massachusetts General Hospital/Harvard Medical School) online database. […] Day 12 hiPSC-CMs were cultured in CHIR continuously for 2 months with serial passaging followed by CHIR withdrawal for an additional month.

hiPSC-CMs [7] = assay: Cell cycle activity in well-differentiated hiPSC-CMs (ki67, pHH3, cell count)
Procedure: To address this, well-differentiated hiPSC-CMs were generated (e.g. day 30 or later) using chemically-defined protocols (Burridge et al. 2014; Churko et al. 2013; Sharma et al. 2015) (Movie S1) and treated them with S1P/LPA or CHIR or both (FIG. 18A). The presence of S1P/LPA receptors in these cells was first validated (FIG. 21). Immunofluorescence staining was then performed for ki67, a marker of cell cycle activity, and phospho Histone H3 (pHH3), a mitosis marker, in cardiac troponin T (TnT) positive cells.

[8] = test system: AKT1/2/3 and other kinases; assay: Phospho-kinase array and western blot in CHIR-treated hiPSC-CMs
Procedure: Kinase phosphorylation levels were screened with a Proteome Profiler Human Phospho-Kinase Array Kit (R&D Systems) containing 43 human kinases and total amounts of 2 proteins. Validation was performed with regular western blotting. Total protein expression was measured with a gel imager (Biorad) and processed with pixel intensity software (Biorad).

hiPSC-CMs [9] = assay: Motion-derived contractility of day 30 hiPSC-CMs; conditions: day 30 hiPSC-CMs vs control
From the text: These studies illustrate an additional role for S1P/LPA to regulate cell cycle activity in well-differentiated hiPSC-CMs and synergize with β-catenin signaling to increase hiPSC-CM proliferation.

Structure (SMILES): Cc1c[nH]c(-c2cnc(NCCNc3ccc(C#N)cn3)nc2-c2ccc(Cl)cc2Cl)n1 [CHIR99021]
- TCF/LEF activity (TOPFlash) (TCF/LEF [1]): dramatic increase in TCF/LEF activity
- cardiac progenitor markers Isl1 and MESP1/2 expression (hiPSC-CMs [2]; 24 hours CHIR): did not result in increased expression
- Wnt signaling target genes and cardiogenic transcription factors expression (hiPSC-CMs [2]; 24 hours, CHIR vs CTR or C59): highly upregulated
- mature cardiac genes expression (hiPSC-CMs [2]; 24 hours, CHIR vs CTR or C59): dramatically downregulated
- increase in the total cell number (hiPSC-CMs [3]; 2.0 μM CHIR from day 12, serial passaging): greater than 100 fold
- increase in CM number (hiPSC-CMs [3]; 2.0 μM CHIR from day 12, serial passaging, TnT+ cells vs DMSO): greater than 100 fold
- cell death (hiPSC-CMs [3]; 2.0 μM CHIR, Caspase 3 staining): without notable cell death
- number of passages possible (hiPSC-CMs [3]; 2.0 μM CHIR, DMSO cells cease to proliferate after first passage): up to 5 times
- hiPSC-CMs generated from 2 million day 12 hiPSC-CMs (hiPSC-CMs [3]; CHIR treatment with serial passaging): 300-900 million
- time to confluence after passaging (hiPSC-CMs [3]; CHIR-treated early passage hiPSC-CMs): 5 to 7 days
- TnT purity during expansion (hiPSC-CMs [3]; expansion of beating hiPSC-CMs): > 95%
- CM purity with each passage (TnT+) (hiPSC-CMs [3]; flow cytometry, vs DMSO which decreased): maintain, if not slightly enrich
- TCF/LEF-luciferase activity, increase vs DMSO control (TCF/LEF [4]): ~40 fold
- sarcomere alignment and organization (hiPSC-CMs [5]; 3 passages in 2.0 μM CHIR vs age-matched CTR): markedly reduced alignment and organization of sarcomeres
- contractile force generation (hiPSC-CMs [5]; CHIR-treated vs CTR cells): decreased force generation
- Wnt signaling target gene expression (Axin2, LEF, CCND2) (hiPSC-CMs [6]): induction of Wnt signaling target gene expression
- markers of hiPSC-CM maturation (MYL2, MYH7, MYOM1) (hiPSC-CMs [6]): down-regulated
- number of hiPSC-CMs (hiPSC-CMs [7]; treatment alone, 48 hours): increase in cell number
- number of bi- or multinucleated cardiomyocytes (hiPSC-CMs [7]; two-day treatment): did not increase the number of bi- or multinucleated cardiomyocytes
- phosphorylation of HSP27 and p70S6K ([8]; CHIR): increased phosphorylation
- phosphorylation of growth suppressor P27 ([8]; CHIR): subtle increase
- AKT1/2/3 phosphorylation at T308 ([8]; screen of 43 kinases, CHIR): significant upregulation
- active form of AKT (pAKT T308) ([8]; western blot, CHIR vs DMSO): rapidly increased
- beating frequency or contractile force generation (hiPSC-CMs [9]): no significant difference
